The results in this text go back to patent publication US20170121322A1, “BET-PROTEIN INHIBITING 3,4-DIHYDROPYRIDO[2,3-B]PYRAZINONES WITH META-SUBSTITUTED AROMATIC AMINO- OR ETHER GROUPS” (Bayer Pharma Aktiengesellschaft, priority 2014, published 2017).

This experiment addresses T1, BRD4 bromo domain 1 [BRD4(1)] (Homo sapiens, UniProt O60885).
T1 construct: N-terminally His6-tagged BRD4(1) (amino acids 67-152); made in house; host or cells: E. coli
The experiment in a line: BRD4(1)/acetylated peptide H4 TR-FRET binding assay. Conditions: His6-BRD4(1) (aa 67-152) vs acetylated histone H4 peptide. The gist of the method:
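His6-tagged BRD4(1) (aa 67-152, E. coli-expressed; 10 nM) pre-incubated with compound (0.1 nM–20 μM, duplicates) for 10 min at 22 °C in HEPES pH 7.5 buffer, then biotinylated tetra-acetylated H4 peptide with TR-FRET reagents added. After 1 h at 22 °C and ≥3 h at 4 °C, the 665/620 nm ratio was read; IC50 from a 4-parameter fit.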
On the technique in general: In TR-FRET formats the signal depends on donor and acceptor labels being close together.
In the case of `COc1ccc(S(=O)(=O)C(C)C)cc1Nc1ccc2c(n1)N(C1CCNCC1)[C@H](C)C(=O)N2C` [Example 26, (3R)-6-{[5-(Isopropylsulphonyl)-2-methoxyphenyl]amino}-1,3-dimethyl-4-(piperidin-4-yl)-3,4-dihydropyrido[2,3-b]pyrazin-2(1H)-one], the IC50 (commonly the midpoint of a concentration-inhibition curve) worked out at 0.019 µM.
In turn, `COc1ccc(S(C)(=O)=O)cc1Nc1ccc2c(n1)N(C1CCNCC1)[C@H](C)C(=O)N2C` [Example 27, (3R)-6-{[2-Methoxy-5-(methylsulphonyl)phenyl]amino}-1,3-dimethyl-4-(piperidin-4-yl)-3,4-dihydropyrido[2,3-b]pyrazin-2(1H)-one] showed an IC50 of 0.054 µM.
Then `COc1ccc(S(=O)(=O)C(C)C)cc1Nc1ccc2c(n1)N(C1CCN(CC(F)(F)F)CC1)[C@H](C)C(=O)N2C` [Example 28, (3R)-6-{[5-(Isopropylsulphonyl)-2-methoxyphenyl]amino}-1,3-dimethyl-4-[1-(2,2,2-trifluoroethyl)piperidin-4-yl]-3,4-dihydropyrido[2,3-b]pyrazin-2(1H)-one], with 0.024 µM; and `COc1ccc(S(=O)(=O)C(C)C)cc1Nc1ccc2c(n1)N(C1CCN(CC(F)F)CC1)[C@H](C)C(=O)N2C` [Example 29, (3R)-4-[1-(2,2-Difluoroethyl)piperidin-4-yl]-6-{[5-(isopropylsulphonyl)-2-methoxyphenyl]amino}-1,3-dimethyl-3,4-dihydropyrido[2,3-b]pyrazin-2(1H)-one], with 0.024 µM.
`COc1ccc(S(=O)(=O)C(C)C)cc1Nc1ccc2c(n1)N(C1CCN(CCC(F)(F)F)CC1)[C@H](C)C(=O)N2C` [Example 31, (3R)-6-{[5-(Isopropylsulphonyl)-2-methoxyphenyl]amino}-1,3-dimethyl-4-[1-(3,3,3-trifluoropropyl)piperidin-4-yl]-3,4-dihydropyrido[2,3-b]pyrazin-2(1H)-one] gave an IC50 of 0.023 µM.
Take `COc1ccc(S(=O)(=O)C2CCOCC2)cc1Nc1ccc2c(n1)N(C1CCOCC1)[C@H](C)C(=O)N2C` [Example 34, (3R)-6-{[2-Methoxy-5-(tetrahydro-2H-pyran-4-ylsulphonyl)phenyl]amino}-1,3-dimethyl-4-(tetrahydro-2H-pyran-4-yl)-3,4-dihydropyrido[2,3-b]pyrazin-2(1H)-one]: the IC50 was 0.022 µM.
The compound `COc1ccc(S(=O)(=O)C2CCC2)cc1Nc1ccc2c(n1)N(C1CCOCC1)[C@H](C)C(=O)N2C` [Example 35, (3R)-6-{[5-(Cyclobutylsulphonyl)-2-methoxyphenyl]amino}-1,3-dimethyl-4-(tetrahydro-2H-pyran-4-yl)-3,4-dihydropyrido[2,3-b]pyrazin-2(1H)-one] returned an IC50 of 0.032 µM.
Then `CC(C)S(=O)(=O)c1ccc(OC(F)(F)F)c(Nc2ccc3c(n2)N(C2CCOCC2)[C@H](C)C(=O)N3C)c1` [Example 38, (3R)-6-{[5-(Isopropylsulphonyl)-2-(trifluoromethoxy)phenyl]amino}-1,3-dimethyl-4-(tetrahydro-2H-pyran-4-yl)-3,4-dihydropyrido[2,3-b]pyrazin-2(1H)-one], with 0.045 µM; and `COc1ccc(S(=O)(=O)C(F)(F)F)cc1Nc1ccc2c(n1)N(C1CCOCC1)[C@H](C)C(=O)N2C` [Example 39, (3R)-6-({2-Methoxy-5-[(trifluoromethyl)sulphonyl]phenyl}amino)-1,3-dimethyl-4-(tetrahydro-2H-pyran-4-yl)-3,4-dihydropyrido[2,3-b]pyrazin-2(1H)-one], with 0.046 µM; and `COc1cc(Nc2ccc3c(n2)N(C2CCOCC2)[C@H](C)C(=O)N3C)cc(S(C)(=O)=O)c1` [Example 40, (3R)-6-{[3-Methoxy-5-(methylsulphonyl)phenyl]amino}-1,3-dimethyl-4-(tetrahydro-2H-pyran-4-yl)-3,4-dihydropyrido[2,3-b]pyrazin-2(1H)-one], with 0.063 µM.
Then `Cc1cc(Nc2ccc3c(n2)N(C2CCOCC2)[C@H](C)C(=O)N3C)ccn1` [Example 42, (3R)-1,3-Dimethyl-6-[(2-methylpyridin-4-yl)amino]-4-(tetrahydro-2H-pyran-4-yl)-3,4-dihydropyrido[2,3-b]pyrazin-2(1H)-one], with 0.228 µM; and `C[C@@H]1C(=O)N(C)c2ccc(Nc3cccc(C(F)(F)F)c3)nc2N1C1CCOCC1` [Example 43, (3R)-1,3-Dimethyl-4-(tetrahydro-2H-pyran-4-yl)-6-{[3-(trifluoromethyl)phenyl]amino}-3,4-dihydropyrido[2,3-b]pyrazin-2(1H)-one], with 0.321 µM.
